One experiment relates to U-937 cells. The experiment is described as follows: CellTiter-Glo luminescent cell viability assay. It is filed as cell-based, human. The conditions noted are these: for IC50: Homo sapiens. As to the method: To evaluate the effects of one compound on 7 cell lines with a CellTiter-Glo Luminescent Cell Viability Assay. Cells were treated with compounds for 72 hours at 37° C./5% CO2 incubator. Compound stock concentration was 20 mM, concentrations to be assayed 100\50\15\10.5\0.1\0.05\0.01\0.005 pM. • i) Materials and Reagents
a) Cells in log-phase are collected and counted. Cell suspensions are added to each well of 384-w plate at a suitable density. The margin wells are filled with PBS.
b) Test compound at various concentrations are added in duplicates
c) The cells were incubated for 72 h in 370/5% CO 2 incubator.
d) After incubation, CellTiter-Glo® Reagent is added to each test well and shack for 2 minutes on an orbital shaker.
e) The plates are shortly centrifuged at 90×g for 30 s and incubated at room temperature for additional 10 minutes to stabilize the luminescent signal.
f) Luminescence signals are detected on PHERAstar Plus.
g) Data is collected in Microsoft excel forms and analyzed with GraphPad Prism v.6 software. • iii) Data analysis
The potential effect of the testing compounds an cell proliferation was calculated by the formula below: Inhibition %=[…]
Since hsMTHFD2 is expressed in human mitochondria and overexpressed in many tumor cells we next aimed to evaluate its potential as an anticancer compound. To this end IC50 values for carolacton were determined for six different cancer cell lines as well as HUVEC cells as primary non-tumor cells. The CellTiter-Glo luminescent cell viability assay (Promega) was used on triplicate cultures grown for three days. Each cell line was tested in three independent experiments (performed at different times and by different experimentators): First, using natural carolacton purified from culture supernatants of Sorangium cellulosum and solved in methanol; second, using carolacton synthesized de novo according to Schmidt et al. 2012 and solved in DMSO; and third, using synthetic carolacton synthesized de novo according to Schmidt et al. 2012 and solved in methanol.

In another experiment the test system is S. mutans ΔfoID biofilms. The experiment is described as follows: S. mutans biofilm viability assay, foID deletion mutant. It counts as cell-based, Streptococcus mutans. The conditions noted are these: 2.5 μg/ml carolacton. As for the experimental part:
According to Reck et al., 2011, S. mutans biofilms were grown in THBY+0.5% (w/v) sucrose in the presence of 2.5 μg/ml carolacton (cf. SI Methods). Cell viability was determined by staining of 20 h-old S. mutans biofilms with the LIVE/DEAD Viability Kit (Invitrogen) and by measuring fluorescence with a Victor^3 multilabel counter (Perkin-Elmer). Subsequently, the green/red fluorescence ratio was calculated and the relative inhibition of the treated biofilms determined in comparison to the untreated control.
For determination of Carolacton-induced cell death of S. mutans biofilms, o/n cultures of S. mutans were diluted to an OD600 of 0.01 in THBY+0.5% (w/v) sucrose. 10 μl of a Carolacton solution (2.5 μg/ml and 0.25 μg/ml in methanol) was pipetted into the wells of black a 96-well polystyrene Nunc MicroWell plates with transparent bottoms (ThermoFisher); control wells contained 10 μl of methanol. […]
The viability of S. mutans biofilm cells was assayed by staining with the commercially available Live/Dead staining kit (Invitrogen). […] Green and red fluorescence values of stained cells were measured using a Victor^3 fluorescence plate reader (Perkin-Elmer). The green/red ratio of treated and untreated cells was calculated and the relative cell death within Carolacton-treated biofilms determined relative to the untreated controls (Reck et al., 2011).

The target in a further experiment is T1, ecFoID (Escherichia coli, UniProt P24186).
T1 construct: His-tag (vector pHis-TEV); made in house; host or cells: E. coli BL21 (DE3)
The experiment can be described thus: Surface plasmon resonance assay. It is filed as binding, E. coli. As to the method: (§1) All surface plasmon resonance (SPR) experiments described in this study were performed on a Biacore X100 system. Different FoIDs with or without His-tag were coupled on CM5 sensor chips (GE Healthcare) by the amine coupling method using a kit from GE Healthcare Life Sciences (Freiburg, Germany). A pH scouting process was performed before protein immobilization to test the most appropriate buffer and the protein concentration for protein coupling. Finally, 20 μg/mL of ecFoID in 10 mM maleate buffer (pH 6.8), 30 μg/mL of ecFoID Q98H in 10 mM maleate buffer (pH 6.3), 40 μg/mL of ecFoID K54N in 10 mM maleate buffer (pH 5.8), 20 μg/mL of spFoID in 10 mM maleate buffer (pH 6.0) and 15 μg/mL of MTHFD2 (His-tag cleaved) in 10 mM maleate buffer (pH 6.8) were used for coupling. In the protein immobilization procedure, the contact time was calculated based on the pH scouting results to achieve -3000-5000 relative resonance units (RU). The buffer used in the SPR assays was 1×HBS-P buffer (10 mM HEPES pH 7.4, 150 mM NaCl, 0.05% Tween 20). The 1 mM stock solution of carolacton was prepared in 1×HBS-P buffer and diluted to different concentration ranges by two-fold serial dilution. In the SPR assay, the association time was 180 s and the dissociation time was 600 s. Data analysis was performed using the Biacore evaluation software. The SPR curves were exported to be re-plotted in OriginPro 2016 (OriginLab, Northampton, Mass., US).
A general note: SPR reads the build-up and loss of mass on a sensor chip optically.

The next experiment deals with T2, ecFoID K54N (Escherichia coli, UniProt P24186, K54N).
T2 construct: made in house; host or cells: E. coli BL21 (DE3)
The experiment can be described thus: Surface plasmon resonance assay. It counts as binding, E. coli. As to the method: as §1

The next experiment deals with T3, ecFoID Q98H (Escherichia coli, UniProt P24186, Q98H).
T3 construct: made in house; host or cells: E. coli BL21 (DE3)
The experiment can be described thus: Surface plasmon resonance assay. It is filed as binding, E. coli. As to the method: as §1

Entries after “also recorded” stand apart in the source; their conditions may differ. Read-outs that look alike come from different tables or passages of the source.

Consider `CO[C@H](CC(=O)O)[C@@H](C)C(=O)[C@H](C)/C=C(\C)[C@H]1OC(=O)[C@H](O)[C@H](O)/C=C/[C@H](C)CCC[C@@H]1C` [Carolacton, carolacton], for which the IC50 in the experiment on U-937 cells (U-937, 72 h, U-937, natural C, methanol, 72 h, read-out: IC50 inhibition of cancer cell proliferation) was 10.7 nM; in the experiment with U-937 cells (U-937, 72 h, U-937, synthetic C, DMSO, 72 h, read-out: IC50 inhibition of cancer cell proliferation) it was 44.7 nM; with U-937 cells (U-937, 72 h, U-937, synthetic C, methanol, 72 h, read-out: IC50 inhibition of cancer cell proliferation) it was 6.84 nM; in the experiment with U-937 cells (U-937, Lymphoma cells (U-937), read-out: IC50 inhibition of proliferation), 6.8 to 44.7 nM. Further, the Bottom result with U-937 cells (U-937, natural C, methanol) is “=0.0”; in the experiment with U-937 cells (U-937, synthetic C, DMSO) it was 1.808; in the experiment with U-937 cells (U-937, synthetic C, methanol), 0. Further, the Top was found to be 67.6 in the experiment on U-937 cells (U-937, natural C, methanol); 61.59 in the experiment with U-937 cells (U-937, synthetic C, DMSO); 60.9 with U-937 cells (U-937, synthetic C, methanol). The “sensitivity of biofilms to carolacton treatment” value in the experiment on S. mutans ΔfoID biofilms was “fully insensitive”. The Kd was 10 nM on ecFoID and 20000 nM on ecFoID Q98H. The “binding (SPR), in words” value is “no binding; also recorded: does not bind” on ecFoID K54N and “weak binding” at ecFoID Q98H (ecFoID Q98H).

The Kd is the constant that tells how readily two partners part at equilibrium.

The record behind these values is patent US11357752B2, “Carolacton and derivatives thereof for use in the treatment of cell proliferation disorders” (Helmholtz-Zentrum für Infektionsforschung GmbH, priority 2017, dated 2022).
